{"source": "paper PMC9762682", "about": "“Tocotrienols: Exciting Biological and Pharmacological Properties of Tocotrienols and Naturally Occurring Compounds, Part II” (Annals of clinical case reports, 2022)", "origin": "cited, not measured here", "key": {"T-cells (Jurkat)": {"test_system": "T-cells (Jurkat)", "parameters": "method as in PMID 29606130"}, "[1]": {"parameters": "method as in ref 14 = [14]; PMID 27493840; doi:10.4172/2155-9880.1000434; 14. Qureshi AA , Khan DA , Saleem S , Silswal N , Trias AM , Tan B , Pharmacokinetics and bioavailability of Annatto δ-tocotrienol in healthy fed subjects . J Clin Exp Cardiol . 2015; 6 : 11 . 10.417"}, "[2]": {"test_system": "cytokines, adiponectin, TGF-β1, leptin", "parameters": "method as in ref 14 = [14]; PMID 27493840; doi:10.4172/2155-9880.1000434; 14. Qureshi AA , Khan DA , Saleem S , Silswal N , Trias AM , Tan B , Pharmacokinetics and bioavailability of Annatto δ-tocotrienol in healthy fed subjects . J Clin Exp Cardiol . 2015; 6 : 11 . 10.417", "conditions": "δ-tocotrienol treatment, pharmacokinetic study"}, "Lung cancer cells": {"test_system": "Lung cancer cells", "parameters": "method as in PMID 29606130; value at effective dose: unit not given here"}, "[3]": {"test_system": "gene expression of TNF-α, IL-2, IL-4, IL-6, IL-8, IL-10", "parameters": "method as in earlier work", "conditions": "250 mg/d + AHA Step-1 diet; baseline = 100"}, "[4]": {"test_system": "20S rabbit muscle proteasome"}, "[5]": {"test_system": "hypercholesterolemic subjects"}, "Prostate cancer cells": {"test_system": "Prostate cancer cells", "parameters": "method as in PMID 29606130; value at effective dose: scale not given here"}, "[6]": {"conditions": "plasma tocol after single 125 mg δ-tocotrienol dose, healthy fed subjects"}, "[7]": {"conditions": "plasma tocol after single 125 mg δ-tocotrienol dose, healthy fed subjects, listed as δ-tocotrienol"}, "[8]": {"conditions": "plasma tocol after single 250 mg δ-tocotrienol dose, healthy fed subjects"}, "[9]": {"conditions": "plasma tocol after single 250 mg δ-tocotrienol dose, healthy fed subjects, listed as δ-tocotrienol"}, "[10]": {"conditions": "plasma tocol after single 500 mg δ-tocotrienol dose, healthy fed subjects"}, "[11]": {"conditions": "plasma tocol after single 500 mg δ-tocotrienol dose, healthy fed subjects, listed as δ-tocotrienol"}, "[12]": {"conditions": "serum, two capsules/d for 24-weeks"}}, "note": "Read-outs that look alike come from different tables or passages of the source. Marks after values point to notes of the source that are not given here."}
{"smiles": "CC(C)=CCC/C(C)=C/CC/C(C)=C/CC[C@]1(C)CCc2cc(O)cc(C)c2O1", "note": "[δ-Tocotrienol]", "values": [{"measurement": "IC50", "setting": "T-cells (Jurkat)", "result": 20, "unit": "µM"}, {"measurement": "percentage of control at IC50 dose", "setting": "T-cells (Jurkat)", "result": 32, "unit": "%"}, {"measurement": "Time of clearance (Cl-T)", "setting": "[1]; 125 mg/d Annatto δ-tocotrienol", "result": 0.049, "unit": "h⁻¹"}, {"measurement": "Time of clearance (Cl-T)", "setting": "[1]; 250 mg/d Annatto δ-tocotrienol", "result": 0.045, "unit": "h⁻¹"}, {"measurement": "Time of clearance (Cl-T)", "setting": "[1]; 500 mg/d Annatto δ-tocotrienol", "result": 0.030, "unit": "h⁻¹"}, {"measurement": "time of appearance in the plasma", "setting": "[1]; after δ-tocotrienol administration to well-fed subjects", "result": "> 2", "unit": "h"}, {"measurement": "Apparent volume of distribution (Vd/f)", "setting": "[1]; [6]", "result": "0.179 ± 0.035^a"}, {"measurement": "Elimination of Half-life time (t1/2)", "setting": "[1]; [6]", "result": "1.74 ± 0.36^a h"}, {"measurement": "Elimination rate constant (ke)", "setting": "[1]; [6]", "result": "0.381 ± 0.059^a h-1"}, {"measurement": "Plasma Peak Concentration (Cmax)", "setting": "[1]; [6]", "result": "828.82 ± 24.28^a ng/mL"}, {"measurement": "Time of clearance (Cl-T)", "setting": "[1]; [6]", "result": "0.049 ± 0.004^a I/h"}, {"measurement": "Time to achieve plasma peak (Tmax)", "setting": "[1]; [6]", "result": 3.00, "unit": "h"}, {"measurement": "Area Under Curve-0 - 10 (AUC0-10)", "setting": "[1]; [7]", "result": 2.46, "unit": "µg·h/mL"}, {"measurement": "Plasma Peak Concentration (Cmax)", "setting": "[1]; [7]", "result": 829, "unit": "ng/mL"}, {"measurement": "Apparent volume of distribution (Vd/f)", "setting": "[1]; [8]", "result": "0.114 ± 0.011^b"}, {"measurement": "Elimination of Half-life time (t1/2)", "setting": "[1]; [8]", "result": "1.39 ± 0.22^a h"}, {"measurement": "Elimination rate constant (ke)", "setting": "[1]; [8]", "result": "0.401 ± 0.039^b h-1"}, {"measurement": "Plasma Peak Concentration (Cmax)", "setting": "[1]; [8]", "result": "1920.36 ± 57.99^b ng/mL"}, {"measurement": "Time of clearance (Cl-T)", "setting": "[1]; [8]", "result": "0.045 ± 0.002^a I/h"}, {"measurement": "Time to achieve plasma peak (Tmax)", "setting": "[1]; [8]", "result": 3.00, "unit": "h"}, {"measurement": "Area Under Curve-0 - 10 (AUC0-10)", "setting": "[1]; [9]", "result": 5.41, "unit": "µg·h/mL"}, {"measurement": "Plasma Peak Concentration (Cmax)", "setting": "[1]; [9]", "result": 1920, "unit": "ng/mL"}, {"measurement": "Apparent volume of distribution (Vd/f)", "setting": "[1]; [10]", "result": "0.613 ± 0.102^c"}, {"measurement": "Elimination of Half-life time (t1/2)", "setting": "[1]; [10]", "result": "2.54 ± 0.05^b h"}, {"measurement": "Elimination rate constant (ke)", "setting": "[1]; [10]", "result": "0.050 ± 0.008^c h-1"}, {"measurement": "Plasma Peak Concentration (Cmax)", "setting": "[1]; [10]", "result": "3278.00 ± 124.13^c ng/mL"}, {"measurement": "Time of clearance (Cl-T)", "setting": "[1]; [10]", "result": "0.030 ± 0.001^b I/h"}, {"measurement": "Area Under Curve-0 - 10 (AUC0-10)", "setting": "[1]; [11]", "result": 15, "unit": "µg·h/mL"}, {"measurement": "Elimination rate constant (ke)", "setting": "[1]; [11]", "result": 0.265, "unit": "h⁻¹"}, {"measurement": "Time to achieve plasma peak (Tmax)", "setting": "[1]; [11]", "result": 6, "unit": "h"}, {"measurement": "bioavailability", "setting": "[1]; when tocotrienols are supplemented in absence of tocopherols", "result": "better bioavailability"}, {"measurement": "adiponectin, TGF-β1, and leptin", "setting": "[2]", "result": "up-regulation"}, {"measurement": "eight cytokines", "setting": "[2]", "result": "down-regulation"}, {"measurement": "IC50", "setting": "Lung cancer cells", "result": 20, "unit": "µM"}, {"measurement": "effective dose", "setting": "Lung cancer cells", "result": 20, "unit": "µM"}, {"measurement": "percentage of control at IC50 dose", "setting": "Lung cancer cells", "result": 11, "unit": "%"}, {"measurement": "percentage of control at effective dose", "setting": "Lung cancer cells", "result": 11, "unit": "%"}, {"measurement": "value at effective dose", "setting": "Lung cancer cells", "result": "8.3 ± 2.1"}, {"measurement": "Gene Expression IL-2", "setting": "[3]", "result": "91.5 ± 3.54"}, {"measurement": "Gene Expression IL-4", "setting": "[3]", "result": "77.5 ± 2.12"}, {"measurement": "Gene Expression IL-6", "setting": "[3]", "result": "73.5 ± 0.71"}, {"measurement": "Gene Expression IL-8", "setting": "[3]", "result": "92.0 ± 2.83"}, {"measurement": "Gene Expression IL-10", "setting": "[3]", "result": "89.0 ± 1.41"}, {"measurement": "Gene Expression TNF-α", "setting": "[3]", "result": "84.5 ± 0.71^a, ^**"}, {"measurement": "chymotrypsin-like activity of 20S rabbit muscle proteasome", "setting": "[4]; 40 μM", "result": "inhibition"}, {"measurement": "chymotrypsin-like activity of 20S rabbit muscle proteasome", "setting": "[4]; 80 μM", "result": "activation"}, {"measurement": "Fasting Glucose, Post-dose, percentage of control (pre-dose) in parentheses", "setting": "people with T2DM; [12]", "result": 93, "unit": "%"}, {"measurement": "MDA, Post-dose", "setting": "people with T2DM; [12]", "result": 3.22, "unit": "µmol/L"}, {"measurement": "MDA, Post-dose, percentage of control (pre-dose) in parentheses", "setting": "people with T2DM; [12]", "result": 89, "unit": "%"}, {"measurement": "hs-CRP, Post-dose", "setting": "people with T2DM; [12]", "result": 3.10, "unit": "mg/L"}, {"measurement": "hs-CRP, Post-dose, percentage of control (pre-dose) in parentheses", "setting": "people with T2DM; [12]", "result": 88, "unit": "%"}, {"measurement": "Fasting Glucose, Post-dose", "setting": "people with T2DM; serum, two capsules/d for 24-weeks (δ-tocotrienol 250 mg, vitamin D3 5000 IU, resveratrol 250 mg per capsule)", "result": 6.85, "unit": "mmol/L"}, {"measurement": "Fasting HbA1c, Post-dose", "setting": "people with T2DM; two capsules/d for 24-weeks", "result": 7.79, "unit": "%"}, {"measurement": "Fasting HbA1c, Post-dose, percentage of control (pre-dose) in parentheses", "setting": "people with T2DM; two capsules/d for 24-weeks", "result": 92, "unit": "%"}, {"measurement": "HOMA-IR, Post-dose", "setting": "people with T2DM; two capsules/d for 24-weeks", "result": 4.51}, {"measurement": "HOMA-IR, Post-dose, percentage of control (pre-dose) in parentheses", "setting": "people with T2DM; two capsules/d for 24-weeks", "result": 86, "unit": "%"}, {"measurement": "reduction of LDL-cholesterol (maximum effect)", "setting": "[5]; 250 mg/d + AHA Step-1 diet", "result": 18, "unit": "%"}, {"measurement": "reduction of total cholesterol (maximum effect)", "setting": "[5]; 250 mg/d + AHA Step-1 diet", "result": 15, "unit": "%"}, {"measurement": "reduction of triglycerides (maximum effect)", "setting": "[5]; 250 mg/d + AHA Step-1 diet", "result": 14, "unit": "%"}, {"measurement": "effect on HDL-cholesterol", "setting": "[5]; 125-750 mg/d + AHA Step-1 diet", "result": "without affecting"}, {"measurement": "levels of lipid parameters", "setting": "[5]; above 500 mg/d dose + AHA Step-1 diet", "result": "induction"}, {"measurement": "IC50", "setting": "Prostate cancer cells", "result": 10, "unit": "µM"}, {"measurement": "percentage of control at IC50 dose", "setting": "Prostate cancer cells", "result": 39, "unit": "%"}, {"measurement": "effective dose", "setting": "Prostate cancer cells; 48 h", "result": 20, "unit": "µM"}, {"measurement": "percentage of control at effective dose", "setting": "Prostate cancer cells; 48 h", "result": 35, "unit": "%"}, {"measurement": "value at effective dose", "setting": "Prostate cancer cells; 48 h", "result": "12.3 ± 1.5"}]}
